The values below come from patent publication US7208517B1, “Endothelin antagonists” (Abbott Labortories, priority 1994, dated 2007).

The first assay addresses T1, ETA Receptor (Rattus norvegicus, UniProt P26684).
T1 construct: endogenous in cells; host or cells: MMQ rat pituitary cells (membranes)
T1 sequence (P26684 21-426): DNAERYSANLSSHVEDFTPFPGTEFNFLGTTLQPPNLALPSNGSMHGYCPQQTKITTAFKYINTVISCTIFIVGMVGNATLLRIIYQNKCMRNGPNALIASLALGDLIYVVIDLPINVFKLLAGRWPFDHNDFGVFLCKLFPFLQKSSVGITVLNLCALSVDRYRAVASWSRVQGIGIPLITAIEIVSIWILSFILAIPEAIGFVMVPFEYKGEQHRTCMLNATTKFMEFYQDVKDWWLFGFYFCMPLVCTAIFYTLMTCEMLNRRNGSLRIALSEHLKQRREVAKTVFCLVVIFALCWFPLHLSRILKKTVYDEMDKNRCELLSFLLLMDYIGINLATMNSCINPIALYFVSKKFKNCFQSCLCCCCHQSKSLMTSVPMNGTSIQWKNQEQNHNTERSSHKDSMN
In words: [125I]ET-1 binding to membranes from MMQ cells (ETA receptor binding assay, Table 4). The note with it: test compound at 1 μM; 0.1 nM [125I]ET-1, MMQ cell membranes, 4 hours at 25° C. How it is done: Preparation of Membranes from MMQ Cells:
MMQ [MacLeod/MacQueen/Login cell line (prolactin secreting rat pituitary cells)] cells from 150 mL culture flasks were collected by centrifugation (1000×g for 10 min) and then homogenized in 25 mL of 10 mM Hepes (pH 7.4) containing 0.25 M sucrose and protease inhibitors [3 mM EDTA, 0.1 mM PMSF, and 5 μg/mL Pepstatin A] by a micro ultrasonic cell disrupter (Kontes). The mixture was centrifuged at 1000×g for 10 min. The supernatant was collected and centrifuged at 60,000×g for 60 min. The precipitate was resuspended in 20 mM Tris, pH 7.4 containing the above protease inhibitors and centrifuged again. The final pellet was resuspended in 20 mM Tris, pH 7.4 containing protease inhibitors and stored at −80° C. until used. Protein content was determined by the Bio-Rad dye-binding protein assay.
Binding assays were performed in 96-well microtiter plates pretreated with 0.1% BSA. […] After incubation, unbound ligands were separated from bound ligands by a vacuum filtration method using glass-fiber filter strips in PHD cell harvesters (Cambridge Technology, Inc., MA), followed by washing the filter strips with saline (1 mL) for three times. Nonspecific binding was determined in the presence of 1 μM ET-1.
Consider `CCN(CC)C(=O)CN1CC(c2ccc3c(c2)OCO3)C(C(=O)O)C1c1ccc(OC)cc1` (stereo not drawn) [Example 44, trans,trans-2-(4-Methoxyphenyl)-4-(1,3-benzodioxol-5-yl)-1-(N,N-diethylaminocarbonylmethyl)-pyrrolidine-3-carboxylic acid], for which the “% Inhibition of ETA at 1 μM” value was 91.3%.

Take `CCOCCN1CC(c2ccc3c(c2)OCO3)C(C(=O)O)C1c1ccc(OC)cc1` (stereo not drawn) [Example 4, trans,trans-2-(4-Methoxyphenyl)-4-(1,3-benzodioxol-5-yl)-1-(2-ethoxyethyl)-pyrrolidine-3-carboxylic acid]: the “% Inhibition of ETA at 1 μM” value stood at 78.2%. Consider `COc1ccc(C2C(C(=O)O)C(c3ccc4c(c3)OCO4)CN2C/C=C/CC(C)C)cc1` (stereo not drawn) [Example 69D, trans,trans-2-(4-Methoxyphenyl)-4-(1,3-benzodioxol-5-yl)-1-N-(trans-5-methylhex-2-enyl)-pyrrolidine-3-carboxylic acid], for which the “% Inhibition of ETA at 1 μM” value came to 37.4%.

For `CCCCN(CCCC)C(=O)CN1CC(c2ccc3c(c2)OCO3)C(C(=O)O)C1c1cccnc1` (stereo not drawn) [Example 130, trans,trans-1-(N,N-Di(n-butyl)aminocarbonylmethyl)-2-(3-pyridyl)-4-(1,3-benzodioxol-5-yl)pyrrolidine-3-carboxylic acid], the “% Inhibition of ETA at 1 μM” value worked out at 91.0%.

Regarding `COc1ccc(C2C(C(=O)O)C(c3ccc4c(c3)OCO4)CN2CC(N)=O)cc1` (stereo not drawn) [Example 2, trans,trans-2-(4-Methoxyphenyl)-4-(1,3-benzodioxol-5-yl)-1-(aminocarbonylmethyl)-pyrrolidine-3-carboxylic acid], the “% Inhibition of ETA at 1 μM” value was found to be 58.4%. The same measure, in the same setting: in the case of `COCCOCCN1CC(c2ccc3c(c2)OCO3)C(C(=O)O)C1c1ccc(OC)cc1` (stereo not drawn) [Example 6B, trans,trans-2-(4-Methoxyphenyl)-4-(1,3-benzodioxol-5-yl)-1-[2-(2-methoxyethoxy)ethyl]-pyrrolidine-3-carboxylic acid] it was 34.9%; in that of `CCCN(C)C(=O)CN1CC(c2ccccc2)C(C(=O)O)C1c1ccc(OC)cc1` (stereo not drawn) [Example 145, trans,trans-1-(N-Methyl-N-propylaminocarbonylmethyl)-2-(4-methoxyphenyl)-4-(phenyl)pyrrolidine-3-carboxylic acid], 32.4%. The same measure, in the same setting: in the case of `CCCCN(CCCC)C(=O)CN1CC(c2ccc3c(c2)CCO3)C(C(=O)O)C1c1ccoc1` (stereo not drawn) [Example 163, trans,trans-1-(N,N-Di(n-butyl)aminocarbonylmethyl)-2-(3-furyl)-4-(5-benzo-2,3-dihydrofuranyl)pyrrolidine-3-carboxylic acid] it was 90.6%; in that of `CCCN(C)C(=O)CN1CC(c2ccc3cc[nH]c3c2)C(C(=O)O)C1c1ccc(OC)cc1` (stereo not drawn) [Example 143, trans,trans-1-(N-Methyl-N-propylaminocarbonylmethyl)-2-(4-methoxyphenyl)-4-(6-indolyl)pyrrolidine-3-carboxylic acid], 20.6%.

As to `CCCCN(CCCC)C(=O)CN1CC(c2ccc3c(c2)CCO3)C(C(=O)O)C1c1ccc(OC)cc1` (stereo not drawn) [Example 148, trans,trans-1-(N,N-Di(n-butyl)aminocarbonylmethyl)-2-(4-methoxyphenyl)-4-(5-benzo-2,3-dihydrofuranyl)pyrrolidine-3-carboxylic acid], the “% Inhibition of ETA at 1 μM” value came out at 94.7%. Take `CCCCN(CCCC)C(=O)CN1CC(c2cccnc2)C(C(=O)O)C1c1ccc(OC)cc1` (stereo not drawn) [Example 165, trans,trans-1-(N,N-Di(n-butyl)aminocarbonylmethyl)-2-(4-methoxyphenyl)-4-(3-pyridyl)pyrrolidine-3-carboxylic acid]: the “% Inhibition of ETA at 1 μM” value was found to be 54.1%. The same measure, in the same setting: with `CCc1ccccc1C(NC(=O)CN1CC(c2ccc3c(c2)OCO3)C(C(=O)O)C1c1ccc(OCCOC(C)C)cc1)c1ccccc1C` (stereo not drawn) [Example 559, trans,trans-2-[4-(2-Isopropopoxyethoxy)phenyl]-4-(1,3-benzodioxol-5-yl)-1-(N-((1-(o-tolyl)-1-(o-ethylphenyl)-methyl)amino)carbonylmethyl)-pyrrolidine-3-carboxylic acid] the figure was 5.8%; with `CCCOCCN1CC(c2ccc3c(c2)OCO3)C(C(=O)O)C1c1ccc(OC)cc1` (stereo not drawn) [Example 5, trans,trans-2-(4-Methoxyphenyl)-4-(1,3-benzodioxol-5-yl)-1-(2-propoxyethyl)-pyrrolidine-3-carboxylic acid], 95.1%; with `CCOC(=O)N(CC)CCN1CC(c2ccc3c(c2)OCO3)C(C(=O)O)C1c1ccc(OC)cc1` (stereo not drawn) [Example 305, trans—trans-2-(4-Methoxyphenyl)-4-(1,3-benzodioxol-5-yl)-1-[2-(N-ethyl-N-ethoxycarbonylamino)ethyl]-pyrrolidine-3-carboxylic acid], 87.4%. The same measure, in the same setting: in the case of `CCCCN(CCCC)C(=O)CN1CC(c2ccc3c(c2)OCO3)C(C(=O)O)C1c1ccc(OC)c(F)c1` (stereo not drawn) [Example 313, trans—trans-2-(4-Methoxy-3-fluorophenyl)-4-(1,3-benzodioxol-5-yl)-1-[N,N-di(n-butyl)aminocarbonylmethyl]-pyrrolidine-3-carboxylic acid] it was 96.3%; in that of `CCCCN(CCCC)C(=O)CN1CC(c2ccc3c(c2)CCO3)C(C(=O)O)C1c1ccc(C(C)(C)C)cc1` (stereo not drawn) [Example 159, trans,trans-1-(N,N-Di(n-butyl)aminocarbonylmethyl)-2-(4-t-butylphenyl)-4-(5-benzo-2,3-dihydrofuranylpyrrolidine-3-carboxylic acid], 36.2%.

For the compound `CCCCN(CCCC)C(=O)CN1CC(c2ccc3c(c2)OCO3)C(C(=O)O)C1CCOC` (stereo not drawn) [Example 309, trans—trans-2-(2-Methoxyethyl)-4-(1,3-benzodioxol-5-yl)-1-[N,N-di(n-butyl)aminocarbonylmethyl]-pyrrolidine-3-carboxylic acid], the “% Inhibition of ETA at 1 μM” value is listed as 80.7%. On the same count and under the same terms, in the case of `CCCN(C)C(=O)CN1CC(c2ccc3c(c2)CCO3)C(C(=O)O)C1c1ccc(OC)cc1` (stereo not drawn) [Example 52, trans,trans-2-(4-Methoxyphenyl)-4-(2,3-dihydrobenzofuran-5-yl)-1-(N-methyl-N-propyl)aminocarbonylmethyl)-pyrrolidine-3-carboxylic acid] it was 84.0%. `CCCCCC1C(C(=O)O)C(c2ccc3c(c2)OCO3)CN1CCN(CCC)S(=O)(=O)CCC` (stereo not drawn) [Example 93C, trans,trans-2-(Pentyl)-4-(1,3-benzodioxol-5-yl)-1-[2-(N-propyl-N-propylsulfonylamino)ethyl]pyrrolidine-3-carboxylic acid]: the “% Inhibition of ETA at 1 μM” value was 59.2%. The same measure, in the same setting: with `CCCCN(CCCC)C(=O)CN1CC(c2ccc3c(c2)OCO3)C(C(=O)O)C1c1ccccc1F` (stereo not drawn) [Example 166, trans,trans-1-(N,N-Di(n-butyl)aminocarbonylmethyl)-2-(2-fluorophenyl)-4-(1,3-benzodioxol-5-yl)pyrrolidine-3-carboxylic acid] the figure was 91.6%; with `COc1ccc(C2C(C(=O)O)C(c3ccc4c(c3)OCO4)CN2CC(=O)N2CC[C@@H]3CCCC[C@H]3C2)cc1` (relative stereo) [Example 293, trans—trans-2-(4-Methoxyphenyl)-4-(1,3-benzodioxol-5-yl)-1-[decahydroisoquinolin-2-carbonylmethyl]-pyrrolidine-3-carboxylic acid], 89.8%. With `CCCN(CCN1CC(c2ccc3c(c2)OCO3)C(C(=O)O)C1c1ccc(OC)cc1)S(=O)(=O)c1ccc(C)cc1` (stereo not drawn) [Example 129, trans,trans-1-(2-(N-Propyl-N-(4-methylbenzenesulfonyl)amino)ethyl)-2-(4-methoxyphenyl)-4-(1,3-benzodioxol-5-yl)pyrrolidine-3-carboxylic acid], the “% Inhibition of ETA at 1 μM” value came to 100.1%. In the case of `CCCCN(CCCC)C(=O)CN1CC(c2ccc(OC)cc2OC)C(C(=O)O)C1c1ccc(OC)cc1` (stereo not drawn) [Example 151, trans,trans-1-(N,N-Di(n-butyl)aminocarbonylmethyl)-2-(4-methoxyphenyl)-4-(2,4-dimethoxyphenyl)pyrrolidine-3-carboxylic acid], the “% Inhibition of ETA at 1 μM” value is on record as 80.5%.

The same assay, now with this note: test compound at 1 μM; 0.1 nM [125I]ET-1, MMQ cell membranes, 4 hours at 25° C.; read-out: % Inhibition of ETA at 1 μM.
One may read the inhibition as the drop in the measured response relative to a control, in per cent. Regarding `CCC[C@H](C(=O)N(CCC)CCC)N1C[C@H](c2ccc3c(c2)OCO3)[C@H](C(=O)O)[C@H]1c1ccc(OC)cc1` [Example 76, (2S,3S,4S)-2-(4-Methoxyphenyl)-4-(1,3-benzodioxol-5-yl)-1-((1R)-1-(N,N-dipropylaminocarbonyl)-1-butyl)pyrrolidine-3-carboxylic acid], the inhibition at 1 µM was 93.1%.
